Here are results for two molecules from article PMC10058641 (Molecular cell, 2022).

One experiment has as its target T1, COQ7 (His6-GB1-Nd38COQ7) (Homo sapiens, UniProt Q99807).
T1 sequence (Q99807 39-217): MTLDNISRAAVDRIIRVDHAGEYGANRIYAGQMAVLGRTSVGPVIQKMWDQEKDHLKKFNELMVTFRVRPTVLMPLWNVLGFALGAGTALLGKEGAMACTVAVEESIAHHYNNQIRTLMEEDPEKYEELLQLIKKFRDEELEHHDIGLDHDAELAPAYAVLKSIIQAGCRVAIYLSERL
The experiment can be described thus: NADH fluorescence loss. The following applies: 250 uM DMQ0, 5 uM protein, 20 mM HEPES pH 7.6, 200 mM NaCl, 30 °C. Type of experiment: biochemical.

The target of experiment [1] is T2, His6-Nd79COQ9 (human COQ9 residues 79-318 with an N-terminal His tag) (human, UniProt O75208 79-318).
T2 sequence (looked up): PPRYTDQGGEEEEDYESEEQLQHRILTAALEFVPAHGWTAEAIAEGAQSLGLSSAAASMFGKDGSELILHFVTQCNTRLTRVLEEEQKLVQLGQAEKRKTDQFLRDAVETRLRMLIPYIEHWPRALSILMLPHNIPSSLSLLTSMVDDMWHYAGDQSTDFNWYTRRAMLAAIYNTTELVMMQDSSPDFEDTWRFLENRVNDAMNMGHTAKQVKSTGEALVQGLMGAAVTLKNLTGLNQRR
The experiment can be described thus: SEC + native gel or EMSA. (In general: In EMSA bound probe runs differently from free probe, usually more slowly.)

The term stoichiometry N denotes a count of units in the complex or per binding partner.

As for `NC(=O)C1=CN([C@@H]2O[C@H](COP(=O)(O)OP(=O)(O)OC[C@H]3O[C@@H](n4cnc5c(N)ncnc54)[C@H](O)[C@@H]3O)[C@@H](O)[C@H]2O)C=CC1` [NADH], the NADH oxidation result at COQ7 (His6-GB1-Nd38COQ7) was “wild type COQ7 slowly oxidized NADH and transferred electrons to a quinone acceptor”.

B1: GB1-Nd38COQ7 (human COQ7 residues 39-217 with N-terminal GB1 tag) (enzyme, UniProt Q99807 39-217, looked up)
chain: T1 sequence (Q99807 39-217)
Turning to B1, the “stoichiometry N” value in experiment [1] came to 1.
